The test system of one assay is glycogen phosphorylase. Kind of assay: Glycogen phosphorylase assay. Type of assay: biochemical. The conditions noted are these: words, no concentration.
For the next assay, the target named is T1, α-D-glucosidase (rice) (Oryza sativa subsp. japonica, UniProt Q653V7).
T1 construct: purchased Sigma-Aldrich
The conditions noted are these: typical DNJ inhibitory activity shown for reference, in words; cited from earlier work.

The next assay concerns β-D-glucosidase (almond). The conditions noted are these: typical DNJ inhibitory activity shown for reference, in words; cited from earlier work.
Assay [1] concerns the target T2, β-D-galactosidase (bovine) (Bos taurus, UniProt Q58D55).
T2 construct: purchased Sigma-Aldrich
T2 sequence (Q58D55 28-653): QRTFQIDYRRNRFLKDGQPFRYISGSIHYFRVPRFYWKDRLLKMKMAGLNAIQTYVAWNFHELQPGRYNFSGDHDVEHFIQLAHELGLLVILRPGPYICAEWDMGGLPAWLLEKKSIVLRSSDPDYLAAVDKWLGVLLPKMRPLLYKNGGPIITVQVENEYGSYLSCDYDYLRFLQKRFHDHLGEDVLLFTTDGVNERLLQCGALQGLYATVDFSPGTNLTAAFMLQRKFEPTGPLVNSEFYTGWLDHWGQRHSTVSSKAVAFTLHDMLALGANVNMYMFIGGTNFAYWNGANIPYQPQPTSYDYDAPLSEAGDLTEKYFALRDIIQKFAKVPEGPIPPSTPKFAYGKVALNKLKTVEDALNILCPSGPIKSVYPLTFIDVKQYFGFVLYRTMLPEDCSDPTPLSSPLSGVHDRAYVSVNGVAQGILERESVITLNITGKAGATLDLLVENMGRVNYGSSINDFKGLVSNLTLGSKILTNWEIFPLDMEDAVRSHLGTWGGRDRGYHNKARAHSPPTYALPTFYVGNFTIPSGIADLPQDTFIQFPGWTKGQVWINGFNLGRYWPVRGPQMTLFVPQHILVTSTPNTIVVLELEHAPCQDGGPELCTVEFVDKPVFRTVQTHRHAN
More on the design: key: NI = no inhibition. Particulars: typical DNJ inhibitory activity shown for reference, in words; cited from earlier work.

Another assay has as its target T3, α-L-fucosidase (bovine) (Bos taurus, UniProt Q2KIM0).
T3 construct: purchased Sigma-Aldrich
T3 sequence (Q2KIM0 23-468): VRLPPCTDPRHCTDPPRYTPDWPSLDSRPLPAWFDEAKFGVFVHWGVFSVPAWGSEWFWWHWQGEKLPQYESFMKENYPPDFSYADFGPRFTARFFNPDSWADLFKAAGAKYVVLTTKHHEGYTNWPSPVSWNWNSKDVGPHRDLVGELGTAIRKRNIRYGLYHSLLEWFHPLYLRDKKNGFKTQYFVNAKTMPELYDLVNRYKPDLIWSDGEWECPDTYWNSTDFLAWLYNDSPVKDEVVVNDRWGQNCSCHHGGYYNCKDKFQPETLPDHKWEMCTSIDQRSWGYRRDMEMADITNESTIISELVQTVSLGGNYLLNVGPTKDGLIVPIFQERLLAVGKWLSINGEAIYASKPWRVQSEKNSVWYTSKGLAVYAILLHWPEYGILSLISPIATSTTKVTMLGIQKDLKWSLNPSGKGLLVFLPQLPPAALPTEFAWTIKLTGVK
More on the design: key: NI = no inhibition. Particulars: typical DNJ inhibitory activity shown for reference, in words; cited from earlier work.

For assay [2], the system named is β-D-mannosidase Cellulomonas fimi. More on the design: key: NI = no inhibition. The conditions noted are these: typical DNJ inhibitory activity shown for reference, in words; cited from earlier work.
The test system of assay [3] is naringinase (P. decumbens). More on the design: key: NI = no inhibition. Particulars: typical DNJ inhibitory activity shown for reference, in words; cited from earlier work.
For assay [4], the target named is T4, β-glucuronidase (bovine liver) (Bos taurus, UniProt A3KMY8).
T4 construct: purchased Sigma-Aldrich; host or cells: bovine liver
T4 sequence (A3KMY8 1-652): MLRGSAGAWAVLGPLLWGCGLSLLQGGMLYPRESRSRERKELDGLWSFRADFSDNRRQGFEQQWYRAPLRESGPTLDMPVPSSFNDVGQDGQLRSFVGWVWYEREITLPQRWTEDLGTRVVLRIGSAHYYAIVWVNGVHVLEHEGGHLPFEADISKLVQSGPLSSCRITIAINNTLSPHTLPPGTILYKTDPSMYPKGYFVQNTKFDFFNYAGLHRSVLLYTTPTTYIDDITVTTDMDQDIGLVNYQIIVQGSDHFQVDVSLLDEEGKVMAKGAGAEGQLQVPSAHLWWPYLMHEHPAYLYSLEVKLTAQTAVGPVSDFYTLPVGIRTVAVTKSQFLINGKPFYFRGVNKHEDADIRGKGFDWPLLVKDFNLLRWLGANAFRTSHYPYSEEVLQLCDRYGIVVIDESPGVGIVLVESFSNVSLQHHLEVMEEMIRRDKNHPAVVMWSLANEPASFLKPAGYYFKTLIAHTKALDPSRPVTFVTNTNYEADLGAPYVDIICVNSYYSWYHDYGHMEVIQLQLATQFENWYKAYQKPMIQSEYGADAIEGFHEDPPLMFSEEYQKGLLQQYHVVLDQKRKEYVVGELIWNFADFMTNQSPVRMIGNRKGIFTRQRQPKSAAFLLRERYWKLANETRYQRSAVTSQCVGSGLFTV
More on the design: key: NI = no inhibition. The conditions noted are these: typical DNJ inhibitory activity shown for reference, in words; cited from earlier work.

T1 sequence (Q653V7 34-885): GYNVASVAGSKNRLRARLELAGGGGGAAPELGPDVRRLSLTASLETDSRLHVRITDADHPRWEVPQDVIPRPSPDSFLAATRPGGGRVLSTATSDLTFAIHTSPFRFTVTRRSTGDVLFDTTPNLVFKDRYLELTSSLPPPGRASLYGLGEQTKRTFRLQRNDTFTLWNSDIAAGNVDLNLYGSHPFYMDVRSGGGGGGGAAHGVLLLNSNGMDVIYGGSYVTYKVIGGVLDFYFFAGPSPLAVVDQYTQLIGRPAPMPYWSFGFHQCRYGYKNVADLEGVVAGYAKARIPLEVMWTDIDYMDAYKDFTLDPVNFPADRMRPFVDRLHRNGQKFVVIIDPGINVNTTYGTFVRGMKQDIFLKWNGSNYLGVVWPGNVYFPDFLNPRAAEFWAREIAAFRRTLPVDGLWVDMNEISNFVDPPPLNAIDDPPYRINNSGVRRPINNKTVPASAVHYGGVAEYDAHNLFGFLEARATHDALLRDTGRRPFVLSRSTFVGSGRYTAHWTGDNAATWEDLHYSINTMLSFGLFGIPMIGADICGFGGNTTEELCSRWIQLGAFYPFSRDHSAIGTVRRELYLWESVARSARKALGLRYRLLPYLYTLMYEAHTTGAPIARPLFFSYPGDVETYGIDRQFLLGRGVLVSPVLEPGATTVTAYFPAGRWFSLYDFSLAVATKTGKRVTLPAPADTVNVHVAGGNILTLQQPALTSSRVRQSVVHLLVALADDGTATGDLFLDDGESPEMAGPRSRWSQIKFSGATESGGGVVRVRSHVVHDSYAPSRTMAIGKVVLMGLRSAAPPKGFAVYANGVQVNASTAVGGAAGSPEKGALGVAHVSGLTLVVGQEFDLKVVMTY

As to `OC[C@H]1NC[C@H](O)[C@@H](O)[C@@H]1O` [DNJ, 1 deoxynojirmycin], in the assay with glycogen phosphorylase, the “glycogen phosphorylase inhibition” value is on record as “do not inhibit”. Moreover, the “α-D-glu rice, typical DNJ inhibitory activity” value at α-D-glucosidase (rice) is reported as “potent”. For the same compound, in the assay on β-D-glucosidase (almond), the “β-D-glu almond, typical DNJ inhibitory activity” value was “moderate”. In addition, in assay [1], the “β-D-gal bovine, typical DNJ inhibitory activity” value was “NI”. For the same compound, the “α-L-fuc bovine, typical DNJ inhibitory activity” value on α-L-fucosidase (bovine) is listed as “NI”. For the same compound, in assay [2], the “β-D-man Cellulomonas, typical DNJ inhibitory activity” value is listed as “NI”. In addition, the “naringinase Penecillium, typical DNJ inhibitory activity” value in assay [3] is listed as “NI”. In addition, in assay [4], the “β-glucuronidase (bovine liver), typical DNJ inhibitory activity” value is on record as “NI”.

The record behind these values is US11484561B2, “Morus extracts rich in N-acids of imino sugars and or pipecolic acids” (Phynova Limited, priority 2011, dated 2022).
